Values after ≈ are worked out from the molar mass of the structure shown. Active and inactive are the calls of the source. The rule behind the calls is not given here.
Experiments:
Assay type in all cases: functional, cell-based
KB [1] = assay: Cytotoxicity against human KB cells
A549 [2] = assay: Cytotoxicity against human A549 cells up to 20 ug/mL
PC-3 [3] = assay: Cytotoxicity against human PC3 cells up to 20 ug/mL
KBVIN = assay: Cytotoxicity against human KBVIN cells up to 20 ug/mL
KB [4] = assay: Cytotoxicity against human KB cells up to 20 ug/mL
MCF7 [5] = assay: Cytotoxicity against human MCF7 cells up to 20 ug/mL
HCT-8 [6] = assay: Cytotoxicity against human HCT8 cells up to 20 ug/mL
DU-145 [7] = assay: Cytotoxicity against human DU145 cells up to 20 ug/mL
HCT-8 [8] = assay: Cytotoxicity against human HCT8 cells
PC-3 [9] = assay: Cytotoxicity against human PC3 cells
DU-145 [10] = assay: Cytotoxicity against human DU145 cells
[11] = Cytotoxicity against human KBVIN cells
MCF7 [12] = assay: Cytotoxicity against human MCF7 cells
A549 [13] = assay: Cytotoxicity against human A549 cells
[14] = Homo sapiens, KB, read-out: EC50
[15] = Homo sapiens, PC-3, read-out: EC50
[16] = Homo sapiens, DU-145, read-out: EC50
[17] = Homo sapiens, KBVIN, read-out: EC50
[18] = Homo sapiens, A549, read-out: EC50

## COC1=CC(=O)c2ccc3ccccc3c2C1=O [ANNOQUINONE A]
KB [1]; [14]
  EC50: 1.6 µg/mL (≈ 6.72 µM)

## COc1cc2ccc3c(OC)cc(OC)c(OC)c3c2c(OC)c1OC
A549 [2]
  Activity: inactive
PC-3 [3]
  Activity: inactive
KBVIN
  Activity: inactive
KB [4]
  Activity: inactive
MCF7 [5]
  Activity: inactive
HCT-8 [6]
  Activity: inactive
DU-145 [7]
  Activity: inactive

## COc1cc(OC)c(OC)c(-c2c(C)cc(OC)c(OC)c2OC)c1C=O
A549 [2]
  Activity: inactive
PC-3 [3]
  Activity: inactive
KBVIN
  Activity: inactive
KB [4]
  Activity: inactive
MCF7 [5]
  Activity: inactive
HCT-8 [6]
  Activity: inactive
DU-145 [7]
  Activity: inactive

## COC1=CC(=O)C(C=O)=C(c2c(C)cc(OC)c(OC)c2OC)C1=O
A549 [2]
  Activity: inactive
PC-3 [3]
  Activity: inactive
KBVIN
  Activity: inactive
KB [4]
  Activity: inactive
MCF7 [5]
  Activity: inactive
HCT-8 [6]
  Activity: inactive
DU-145 [7]
  Activity: inactive

## COC1=CC(=O)c2ccc3cc(OC)c(OC)c(OC)c3c2C1=O
HCT-8 [8]
  EC50: 15.2 µg/mL (≈ 46.4 µM)
PC-3 [9]; [15]
  EC50: 7.81 µg/mL (≈ 23.8 µM)
DU-145 [10]; [16]
  EC50: 4.4 µg/mL (≈ 13.4 µM)
[11]; [17]
  EC50: 9.14 µg/mL (≈ 27.8 µM)
MCF7 [12]
  EC50: 5.33 µg/mL (≈ 16.2 µM)
KB [1]; [14]
  EC50: 8.08 µg/mL (≈ 24.6 µM)
A549 [13]; [18]
  EC50: 7.06 µg/mL (≈ 21.5 µM)

## COC(=O)C1=C(c2c(C)cc(OC)c(OC)c2OC)C(=O)C(OC)=CC1=O
HCT-8 [8]
  EC50: 5.85 µg/mL (≈ 15.5 µM)
PC-3 [9]; [15]
  EC50: 6.09 µg/mL (≈ 16.2 µM)
DU-145 [10]; [16]
  EC50: 4.74 µg/mL (≈ 12.6 µM)
[11]; [17]
  EC50: 5.48 µg/mL (≈ 14.6 µM)
MCF7 [12]
  EC50: 6.4 µg/mL (≈ 17 µM)
KB [1]; [14]
  EC50: 4.02 µg/mL (≈ 10.7 µM)
A549 [13]; [18]
  EC50: 6.12 µg/mL (≈ 16.3 µM)

## COC1=CC(=O)c2ccc3cc(OC)c(OC)c(O)c3c2C1=O [CALANQUINONE A]
HCT-8 [8]
  EC50: 0.29 µg/mL (≈ 0.923 µM)
PC-3 [9]; pc-3
  EC50: 0.75 µg/mL (≈ 2.39 µM)
DU-145 [10]; du-145
  EC50: 0.48 µg/mL (≈ 1.53 µM)
[11]; kbvin
  EC50: 0.24 µg/mL (≈ 0.764 µM)
KB [1]; kb
  EC50: 0.3 µg/mL (≈ 0.955 µM)
A549 [13]; a549
  EC50: 0.31 µg/mL (≈ 0.986 µM)

— ChEMBL document CHEMBL1155903, “Cytotoxic calanquinone A from Calanthe arisanensis and its first total synthesis” (Bioorg Med Chem Lett, 2008)
